Laboratory results reported in the NIST ThermoML archive (doi:10.1016/j.jct.2009.11.012).

How the values were obtained:
[1] = molar enthalpy of transition or fusion; details: 298.15 K; Crystal 2; DSC
[2] = Molar enthalpy of transition or fusion; details: Crystal 2; DSC
[3] = DTA
[4] = molar heat capacity at constant pressure; details: 101.33 kPa, Small sample (50 mg) DSC

O=C(Nc1ccc(Cl)cc1)Nc1ccc(Cl)c(Cl)c1 [N-(4-chlorophenyl)-N'-(3,4-dichlorophenyl)urea]
Details | Molar enthalpy of transition or fusion [kcal/mol] | molar enthalpy of transition or fusion [kcal/mol]
[1] | – | 43.5
[2] | 1.46 | –

[3]
Details | Normal melting temperature [°C] | Triple point temperature [K]
Crystal 1 | 254.4 | –
Crystal 2 | – | 428

[4]
Details | molar heat capacity at constant pressure [J/K/mol]
263.15 K, Crystal 2 | 268.71
265.15 K, Crystal 2 | 269.88
270.15 K, Crystal 2 | 272.35
275.15 K, Crystal 2 | 274.29
280.15 K, Crystal 2 | 276.34
285.15 K, Crystal 2 | 278.5
290.15 K, Crystal 2 | 280.82
295.15 K, Crystal 2 | 282.87
298.15 K, Crystal 2 | 284.13
300.15 K, Crystal 2 | 285.18
305.15 K, Crystal 2 | 287.71
310.15 K, Crystal 2 | 290.49
315.15 K, Crystal 2 | 290.67
320.15 K, Crystal 2 | 294.23
325.15 K, Crystal 2 | 294.87
330.15 K, Crystal 2 | 297.95
335.15 K, Crystal 2 | 299.93
340.15 K, Crystal 2 | 302.05
345.15 K, Crystal 2 | 304.25
350.15 K, Crystal 2 | 307.35
355.15 K, Crystal 2 | 310.57
360.15 K, Crystal 2 | 313.61
365.15 K, Crystal 2 | 316.56
370.15 K, Crystal 2 | 318.53
375.15 K, Crystal 2 | 320.86
380.15 K, Crystal 2 | 322.77
385.15 K, Crystal 2 | 325.84
390.15 K, Crystal 2 | 328.48
395.15 K, Crystal 2 | 330.98
400.15 K, Crystal 2 | 333.62
405.15 K, Crystal 2 | 335.55
410.15 K, Crystal 2 | 339.3
475.15 K, Crystal 1 | 432.35
480.15 K, Crystal 1 | 436.61
485.15 K, Crystal 1 | 444.02
490.15 K, Crystal 1 | 452.78
495.15 K, Crystal 1 | 464.93
